Results as given in patent publication US20260108526A1, “BIOMARKER FOR TREATMENT OF SOLID CANCER WITH IMIDAZO[4,5-b]PYRIDINE DERIVATIVE” (CHORDIA THERAPEUTICS INC., priority 2022, published 2026).

How the values were obtained:
[1] = tested on: 3T3 cells with MYCC WT, Q37del or S146L introduced (comparative control GFP or KRASG12D); test: Drug sensitivity evaluation by MANO method, 3T3 cells with cancer-related genes introduced; type: cell-based, mouse; details: versus GFP or KRASG12D
Method: The present evaluation was carried out as follows with a conventional procedure of the MANO method described in International Publication No. WO 2018/181863.
HEK (Human Embryonic Kidney) 293 cells and mouse 3T3 fibroblasts were obtained from ATCC (American Type Culture Collection), and maintained with Dulbecco's modified Eagle's medium F-12 (DMEM-F12) supplemented with 10% FBS (both from Thermo Fisher Scientific, Walthman, MA). […]
The recombinant plasmid prepared as above was introduced into HEK293 cells together with a packaging plasmid (Takara Bio Inc., Shiga, Japan), giving recombinant retroviral particles. […] The transformation of the cells was evaluated by phase-contrast microscopy or staining with Giemsa solution. […]
The PCR product after amplification was purified with AMPurebeads (Beckman Coulter, Inc., Brea, CA). […] The quality of the library was evaluated with a Qubit 2.0 Fluorometer (Thermo Fisher Scientific) and an Agilent2200 Tape Station system. The library was sequenced by using an Illumina MiSeq (300 cycles) with a Reagent Kit V2 to produce paired-end reads of 150 bp. These sequence reads included the following sequence containing the barcode sequence: 5′-[…]-3′ (wherein N represents any nucleotide) and the complementary sequence. The amount of each mutant was estimated by counting the number of reads for the barcode sequence. […]

CHP-212 = test: Cell viability, neuroblastoma cell lines (CellTiter-Glo); type: cell-based; details: Homo sapiens, 96 h; CHP-212, MYCN gene amplification present, 4 days
Method: (§1) The neuroblastoma cell lines CHP-212, SK-N-BE(2), SK-N-DZ, LN-18, U-87 MG, and SW1088 were obtained from ATCC (American Type Culture Collection), and cultured with Dulbecco's modified Eagle's medium F-12 (DMEM-F12) supplemented with 10% FBS (both from Thermo Fisher Scientific, Walthman, MA) under conditions of 5% CO2 and 37° C. for use.
(§2) Each of the aforementioned six cell lines (4000 cells/90 μL for each case) was seeded in wells of a 96-well plate, and then 10 μL of medium containing DMSO alone or compound A (1 nM, 3 nM, 10 nM, 30 nM, 100 nM, 300 nM, 1000 nM, 3000 nM, and 10000 nM) was quickly added to give different final concentrations. After culturing for 4 days following the addition, the following evaluation of cell viabilities was carried out.
(§3) Evaluation of cell viabilities after different treatments was carried out by measuring intracellular adenosine triphosphate (ATP) with CellTiter-Glo. Specifically, 100 μL of CellTiter-Glo solution was added to each well, incubation was performed at room temperature for 15 minutes, and the chemiluminescence was then measured. The mean of each combination was calculated from the resulting data, and concentration response curves on cell viabilities as the emission intensity in the cells treated with DMSO alone was defined as 100% were drawn for single use or combined use of each agent.
(§4) The 50% inhibition concentration (IC50) of compound A was determined by using Graph Pad Prism software version 7.0 (GraphPad Software Inc.).

LN-18 = test: as above; type: cell-based; details: Homo sapiens, 96 h; LN-18, MYCN gene amplification absent, 4 days
Method: as §1, §2, §3, §4

SK-N-BE(2) = test: as above; type: cell-based; details: Homo sapiens, SKNBE2, 96 h, MYCN gene amplification present, 4 days
Method: as §1, §2, §3, §4

SK-N-DZ = test: as above; type: cell-based; details: Homo sapiens, 96 h, MYCN gene amplification present, 4 days
Method: as §1, §2, §3, §4

SW1088 = test: as above; type: cell-based; details: Homo sapiens, 96 h; SW1088, MYCN gene amplification absent, 4 days
Method: as §1, §2, §3, §4

U-87MG = test: as above; type: cell-based; details: Homo sapiens, 96 h, MYCN gene amplification absent, 4 days
Method: as §1, §2, §3, §4

IC50 (CHP-212): 65.9 nM
IC50 (LN-18): 106 nM
IC50 (SK-N-BE(2)): 86.6 nM
IC50 (SK-N-DZ): 25.4 nM
IC50 (SW1088): 152 nM
IC50 (U-87MG): 101 nM
Compound: COc1ncnn2ccc(-c3cnc4nc(C)n(Cc5nnc([C@@H](C)F)o5)c4c3)c12 [compound A]
growth-inhibitory effect (IC90 lower than comparative control) [1]: particularly strong growth-inhibitory effect
